According to patent US9173396B2, “Heterocyclic compounds as pesticides” (BAYER INTELLECTUAL PROPERTY GMBH, priority 2010, dated 2015):
Like-named read-outs stand apart in the source and are kept apart here.

Experiments:
[1] = system: green peach aphid (Myzus persicae); test: Myzus test (spray treatment); type: in vivo; settings: foliar, 144 h, application rate of 500 g/ha, after 6 days, Chinese cabbage leaf discs, 100% = all aphids killed, read-out: effect in %
Procedure: Myzus Test (Spray Treatment)
• Solvents: 78 parts by weight of acetone • 1.5 parts by weight of dimethylformamide • Emulsifier: 0.5 part by weight of alkylaryl polyglycol ether
(§1) To produce a suitable preparation of active compound, 1 part by weight of active compound is mixed with the stated amounts of solvent and emulsifier, and the concentrate is diluted with emulsifier-containing water to the desired concentration. Discs of Chinese cabbage (Brassica pekinensis) infected by all stages of the green peach aphid (Myzus persicae) are sprayed with an active compound preparation of the desired concentration.
After 6 days, the effect in % is determined. 100% means that all of the aphids have been killed; 0% means that none of the aphids have been killed.

[2] = system: greenhouse red spider mite (Tetranychus urticae); test: Tetranychus test (OP-resistant/spray treatment); type: in vivo; settings: application rate of 500 g/ha; after 6 days; bean leaf discs; 100% = all spider mites killed
Procedure: Tetranychus Test (OP-Resistant/Spray Treatment)
• Solvents: 78.0 parts by weight of acetone • 1.5 parts by weight of dimethylformamide • Emulsifier: 0.5 part by weight of alkylaryl polyglycol ether
as §1, with “bean leaves (Phaseolus vulgaris) which are infested” for “Chinese cabbage (Brassica pekinensis) infected”, “greenhouse red spider mite (Tetranychus urticae)” for “green peach aphid (Myzus persicae)”
After 6 days, the effect in % is determined. 100% means that all of the spider mites have been killed; 0% means that none of the spider mites have been killed.

[3] = log P, HPLC-MS, eluent not stated
[4] = HCOOH (formic acid), log P (HCOOH), HPLC-MS, HCOOH
[5] = HCOOH (formic acid), logP, HCOOH, Table 1

| Compound | chromatographic logP (log P by HPLC-MS; [3]) | pest or weed control at 500 g/ha [1] [%] | chromatographic logP (log P by HPLC-MS; [5]) | also measured |
| --- | --- | --- | --- | --- |
| CN(C)C=CC(=O)c1cncc(F)c1 (mixture of isomers) [(E/Z)-3-(Dimethylamino)-1-(5-fluoro-3-pyridinyl)-2-propen-1-one] | 0.91 |  |  |  |
| C#Cc1cccc(-c2ncccn2)n1 [2-(6-ethynylpyridin-2-yl)pyrimidine, 2-(6-Ethynylpyridin-2-yl)pyrimidine] | 1.05 |  |  |  |
| Cn1nc(-c2cccc(Br)n2)cc1-c1cccnc1 [2-Bromo-6-[1-methyl-5-(pyridin-3-yl)-1H-pyrazol-3-yl]pyridine] |  |  |  | chromatographic logP (log P by HPLC-MS; HCOOH (formic acid)): 1.94 |
| c1cnc(-c2cccc(-c3nccs3)n2)nc1 [2-[6-(1,3-Thiazol-2-yl)pyridin-2-yl]pyrimidine] | 1.43 |  |  |  |
| C[Si](C)(C)C#Cc1cccc(-c2ncccn2)n1 [2-{6-[(Trimethylsilyl)ethynyl]pyridin-2-yl}pyrimidine] |  |  |  | chromatographic logP (log P by HPLC-MS): 3.11 |
| Fc1cncc(-c2cc[nH]n2)c1 [3-(5-fluoro-3-pyridinyl)-1H-pyrazole, 3-(5-Fluoro-3-pyridinyl)-1H-pyrazole] | 0.92 |  |  |  |
| CC1(C)OB(c2coc(-c3cccnc3)c2)OC1(C)C [3-[4-(4,4,5,5-Tetramethyl-1,3,2-dioxaborolan-2-yl)-2-furyl]pyridine] | 2.25 |  |  |  |
| CCc1nn(-c2cccnc2)c(=O)n1N [4-Amino-5-ethyl-2-(pyridin-3-yl)-2,4-dihydro-3H-1,2,4-triazol-3-one] | 0.32 |  |  |  |
| CC(C)c1nn(-c2cccnc2)c(=O)n1N [4-Amino-5-isopropyl-2-(pyridin-3-yl)-2,4-dihydro-3H-1,2,4-triazol-3-one] | 0.85 |  |  |  |
| CCc1nn(-c2cccnc2)c(=O)[nH]1 [5-Ethyl-2-(pyridin-3-yl)-2,4-dihydro-3H-1,2,4-triazol-3-one] | 0.3 |  |  |  |
| CC(C)c1nn(-c2cccnc2)c(=O)[nH]1 [5-Isopropyl-2-(pyridin-3-yl)-2,4-dihydro-3H-1,2,4-triazol-3-one] | 0.71 |  |  |  |
| Cc1nn(-c2cccnc2)c(=O)[nH]1 [5-Methyl-2-(pyridin-3-yl)-2,4-dihydro-3H-1,2,4-triazol-3-one] | -0.21 |  |  |  |
| O=C(O)c1cccc(-n2ccc(-c3cncc(F)c3)n2)n1 [6-[3-(5-Fluoro-3-pyridinyl)-1H-pyrazol-1-yl]-2-pyridinecarboxylate] | 1.81 |  |  |  |
| Brc1cccc(-c2cc(-c3cccnc3)no2)n1 [Compound 1, 2-Bromo-6-[3-(pyridin-3-yl)-1,2-oxazol-5-yl]pyridine] |  | 100 | 2.23 | chromatographic logP (log P by HPLC-MS; [4]): 2.23 |
| Cn1nc(-c2cccc(-c3ncccn3)n2)cc1-c1cccnc1 [Compound 2, 2-{6-[1-Methyl-5-(pyridin-3-yl)-1H-pyrazol-3-yl]pyridin-2-yl}pyrimidine] |  | 100 | 1.26 | chromatographic logP (log P by HPLC-MS; [4]): 1.26 |
| c1cnc(-c2cccc(-n3cnc(-c4cccnc4)c3)n2)nc1 [Compound 3, 2-{6-[4-(Pyridin-3-yl)-1H-imidazol-1-yl]pyridin-2-yl}pyrimidine] |  | 100 | 0.73 | chromatographic logP (log P by HPLC-MS; [4]): 0.75 |
| FC(F)(F)c1cccc(-n2cnc(-c3cccnc3)n2)n1 [Compound 6, 2-[3-(Pyridin-3-yl)-1H-1,2,4-triazol-1-yl]-6-(trifluoromethyl)pyridine] | 2.11 | 100 | 2.11 |  |
| c1cnc(-c2cccc(-c3cnc(-c4cccnc4)o3)n2)nc1 [Compound 7, 2-{6-[2-(Pyridin-3-yl)-1,3-oxazol-5-yl]pyridin-2-yl}pyrimidine] | 1.39 | 100 | 1.39 | effect in % [2]: 100% |
| c1cnc(-c2cccc(-n3cc(-c4cccnc4)cn3)n2)nc1 [Compound 9, 2-{6-[4-(Pyridin-3-yl)-1H-pyrazol-1-yl]pyridin-2-yl}pyrimidine] | 1.04 | 100 | 1.04 |  |
| c1cnc(-c2cccc(-c3cn(-c4cccnc4)nn3)n2)nc1 [Compound 10, 2-{6-[1-(Pyridin-3-yl)-1H-1,2,3-triazol-4-yl]pyridin-2-yl}pyrimidine] | 1.39 | 100 | 1.39 |  |
| c1cnc(-c2cccc(-c3coc(-c4cccnc4)c3)n2)nc1 [Compound 11, 2-{6-[5-(Pyridin-3-yl)-3-furyl]pyridin-2-yl}pyrimidine] | 1.26 |  | 1.26 |  |
| c1cnc(-c2cccc(-n3ccc(-c4cccnc4)n3)n2)nc1 [Compound 13, 2-{6-[3-(Pyridin-3-yl)-1H-pyrazol-1-yl]pyridin-2-yl}pyrimidine] | 1.2 |  | 1.2 |  |
| CC(C)c1nn(-c2cccnc2)c(=O)n1-c1cccc(-c2ncccn2)n1 [Compound 14, 5-Isopropyl-2-(pyridin-3-yl)-4-[6-(pyrimidin-2-yl)pyridin-2-yl]-2,4-dihydro-3H-1,2,4-triazol-3-one] | 1.77 |  | 1.77 |  |
| CCc1nn(-c2cccnc2)c(=O)n1-c1cccc(-c2ncccn2)n1 [Compound 15, 5-Ethyl-2-(pyridin-3-yl)-4-[6-(pyrimidin-2-yl)pyridin-2-yl]-2,4-dihydro-3H-1,2,4-triazol-3-one] |  |  | 1.48 |  |
| Cc1nn(-c2cccnc2)c(=O)n1-c1cccc(-c2ncccn2)n1 [Compound 16, 5-methyl-2-(pyridin-3-yl)-4-[6-(pyrimidin-2-yl)pyridin-2-yl]-2,4-dihydro-3H-1,2,4-triazol-3-one] |  |  | 1.17 |  |
| c1cnc(-c2cccc(-c3ncc(-c4cccnc4)s3)n2)nc1 [Compound 17, 2-{6-[5-(Pyridin-3-yl)-1,3-thiazol-2-yl]pyridin-2-yl}pyrimidine] | 1.79 | 100 | 1.79 |  |
| Fc1cncc(-c2cnc(-c3cccc(-c4ncccn4)n3)s2)c1 [Compound 21, 2-{6-[5-(5-Fluoropyridin-3-yl)-1,3-thiazol-2-yl]pyridin-2-yl}pyrimidine] | 2.13 | 90 |  | chromatographic logP (log P by HPLC-MS; HPLC-MS, logP, HCOOH, Table 2): 2.13 |
| CN(C)S(=O)(=O)NC(=O)c1cccc(-n2ccc(-c3cncc(F)c3)n2)n1 [Compound 22, 6-[3-(5-Fluoro-3-pyridinyl)-1H-pyrazol-1-yl]-N-[(dimethylamino)sulfonyl]-2-pyridinecarboxamide] |  |  |  | chromatographic logP (log P by HPLC-MS; HPLC-MS, log P, eluent not stated): 2.61; chromatographic logP (log P by HPLC-MS; HPLC-MS, logP, HCOOH, Table 2): 2.61 |
| COC(=O)c1cccc(-n2ccc(-c3cncc(F)c3)n2)n1 [Methyl 6-[3-(5-fluoro-3-pyridinyl)-1H-pyrazol-1-yl]-2-pyridinecarboxylate] | 1.07 |  |  |  |
